In patent US11382907B2, “Methods and compositions for treating aging-associated impairments using CCR3-inhibitors” (Alkahest, Inc., priority 2017, dated 2022):
“Also recorded” adds a separate entry of the source.

Columns and labels:
[1] = system: CD68+ activated microglia; assay: CD68+ activated microglia after one dose of LPS; type: in vivo, C57 mice; details: 3-month-old mice; one dose LPS 10 mg/kg IP; 30 mg/kg BID oral gavage 18 days
Text: Mice were taken down on the day following the end of behavior testing. Anesthesia was induced by 2,2,2-tribromoethanol and mice were subsequently perfused with 0.9% saline trans-cardially. The brains were dissected and cut sagitally in two even halves. One half was snap frozen for later use in dry ice, and the other was fixed in 4% paraformaldehyde in PBS for use in immunohistochemistry. After two days of fixation, the hemibrains were transferred to a 30% sucrose in PBS solution and changed after two days. Hemibrains were sectioned at 30 um on a microtome at −22° C. Brain sections were stored in cryoprotectant media at −20° C. until needed for staining. Blocking was done on free floating sections in the appropriate serum at 10% serum in PBST 0.5%. Primary antibodies were incubated overnight at 4 C. For light microscopy, the following antibodies were used in the given concentrations: DCX, 1:200, Santa Cruz BioTech, CD68, 1:1000. AbD Serotec. Secondary biotinylated antibodies were applied the next day at a concentration of 1:300. Staining visualization was achieved by reaction with the ABC kit (Vector) and diaminobenzidine (Sigma). Dehydration of the mounted slides was achieved using ethanol and xylene dips. Images were acquired on a Leica light microscope at 5× magnification. […]

[2] = system: CD68+ activated microglia; assay: IHC of CD68+ activated microglia in hippocampus of aged mice; type: in vivo, C57Bl/6 mice; details: 23-month-old mice, 30 mg/kg SQ BID 21 days
Text: Mice were taken down on the day following the end of behavior testing. Anesthesia was induced by 2,2,2-tribromoethanol and mice were subsequently perfused with 0.9% saline trans-cardially. The brains were dissected and cut sagitally in two even halves. One half was snap frozen for later use in dry ice, and the other was fixed in 4% paraformaldehyde in PBS for use in immunohistochemistry. After two days of fixation, the hemibrains were transferred to a 30% sucrose in PBS solution and changed after two days. Hemibrains were sectioned at 30 um on a microtome at −22° C. Brain sections were stored in cryoprotectant media at −20° C. until needed for staining. Blocking was done on free floating sections in the appropriate serum at 10% serum in PBST 0.5%. Primary antibodies were incubated overnight at 4 C. For light microscopy, the following antibodies were used in the given concentrations: DCX, 1:200, Santa Cruz BioTech, CD68, 1:1000. AbD Serotec. Secondary biotinylated antibodies were applied the next day at a concentration of 1:300. Staining visualization was achieved by reaction with the ABC kit (Vector) and diaminobenzidine (Sigma). Dehydration of the mounted slides was achieved using ethanol and xylene dips. Images were acquired on a Leica light microscope at 5× magnification.
23-month-old C57Bl/6 mice were dosed with either vehicle control or Compound 1 subcutaneously twice daily for 21 days. […]

[3] = system: two-month-old C57Bl/6 mice treated with rmCCL11; assay: Barnes maze test in young mice given recombinant mouse CCL11; type: in vivo; details: 2-month-old mice; rmCCL11 i.p.; Compound 1 30 mg/kg p.o. b.i.d.
Text: A modified Barnes maze was used to assess spatial working/episodic like learning and memory. The Barnes maze apparatus consists of a 122 cm diameter circular platform with 40 escape holes, each with a diameter of 5 cm placed along three rings of varying distances from the center of the platform. An escape box is attached to one of the holes and all holes are left uncovered. Bright lights and a fan are trained on the maze to provide adverse stimuli to encourage escape. Visual cues are placed on all four sides of the maze. Mice are given a series of 4 or 5 trials with inter-trial intervals of approximately 10 min, and the maximum duration of each trial is 90 or 120 sec. For each trial, mice are placed in the center of the maze. After 10 seconds, mice are allowed to explore, and the trial is ended if the mouse has found and entered an escape box before the end of the trial. Mice that cannot find the escape box are led to it and allowed to enter and given 30 sec to remain before being returned to its home cage. Training is done for 4 days. Data that is recorded and analyzed include velocity, escape latency, and distance moved.
Two-month-old C57Bl/6 mice were dosed with either vehicle control or Compound 1 by oral gavage twice daily for 18 days. During the last week of treatment, mice were subjected to behavior testing prior to perfusion on the last day of treatment. […]

GFAP-positive astroglia = assay: IHC of GFAP-positive astroglia in hippocampus of mice given daily LPS; type: in vivo, C57Bl/6 mice; details: 3-month-old mice, daily LPS IP 7 weeks, 30 mg/kg PO BID 4 weeks
Experimental: For fluorescent microscopy, the following antibodies were used in the given concentrations: GFAP, 1:500, DAKO; Iba1, 1:1000, Wako; and BrdU, 1:500, AbCam. Antigen retrieval protocol was required for BrdU (2N HCl, 37 C, 30 min) prior to blocking. The appropriate fluorescent secondary antibodies were applied the next day at a concentration of 1:300 for one hour at room temperature. Prolong Gold Mounting Media was used to coverslip the slides. Images were acquired on a light microscope at 5× magnification.
Three-month-old C57 mice were given daily doses of lipopolysaccharide (LPS) 0.5 mg/kg IP to induce inflammation and treated with Compound 1 for up to 4 weeks.
Treatment Groups: • Treatment Group 1, Vehicle treatment: 3-month-old C57 mice (n=10) received daily IP injection of LPS for 7 weeks and twice daily (BID) oral gavage (PO) treatment of vehicle solution for up to 4 weeks. • Treatment Group 2, Vehicle treatment and Oxazolone treatment: 3-month-old C57 mice (n=10) received daily IP injection of LPS for 7 weeks and twice daily (BID) oral gavage (PO) treatment of vehicle solution for up to 4 weeks. • Treatment Group 3, Compound 1 treatment and Oxazolone treatment: 3-month-old C57 mice (n=9) received daily IP injection of LPS for 7 weeks and twice daily (BID) oral gavage (PO) treatment of Compound 1, 30 mg/kg, for up to 4 weeks.

Cc1cc(C(=O)N(C)C)cc(NC(=O)[C@H]2CCC(=O)N2C2CCN(Cc3ccc(Cl)c(C)c3)CC2)n1 [Compound 1]
CD68+ immunoreactivity (activated microglia) in brain [1]: significantly decreased CD68+ immunoreactivity | CD68+ activated microglia in the hippocampus [2]: strong trend towards decreased microgliosis; also recorded: trend lower | memory in the Barnes maze [3]: significantly improved memory performance | GFAP+ immunoreactivity (total astrocytes) in hippocampus (GFAP-positive astroglia): dramatically decreased GFAP+ immunoreactivity; also recorded: trend towards decrease
